# Results reported in US20240050406A1, “COMPOSITION COMPRISING OXIRACETAM FOR PREVENTING OR TREATING MUSCULAR DISEASE” (KSB TUGEN INC., priority 2021, published 2024).
# Key:
# DMD animal model = assay: Duchenne muscular dystrophy animal model (Experimental Example 6); type: in vivo, mice (C57BL/10 ScSn-Dmdmdx/J); conditions: mdx mice, oxiracetam 30 mg/kg oral daily 35 days
# Procedure: As experimental animals, 23-week-old male mice (C57BL/10 ScSn-Dmdmdx/J) were purchased from the Jackson Laboratory (USA) to conduct experiments. All animals were maintained under conditions of a temperature of 23±2° C. and a relative humidity of 55±10%. Before the initiation of the experiment, a total of 20 mice were randomly divided into groups of 10 animals. After adaptation for 1 week, 30 mg/kg of oxiracetam of Example 1 was orally administered daily for 35 days (drug-administered group, oxiracetam). Here, for the control (vehicle), instead of a sample, normal saline was orally administered.
# For statistical analysis of the experiment, significant differences in mean values between groups were confirmed using a paired t-test, and p<0.05 is denoted as *, p<0.01 is denoted as **, p<0.001 is denoted as ***, and no significant difference is denoted as N.S. An error bar represents S.E.M.
# Total lean body mass, body fat content (fat, %), the lean body mass of the gastrocnemius muscle (GS), and the lean body mass of the tibialis anterior (TA) were analyzed by dual energy X-ray absorptiometry (DEXA) every 7 days from the first day (day 0) of oral administration. Specifically, animal models of each group were anesthetized using 3% isoflurane, fixed to a photographing bed and then photographed. During photographing, the respiratory rates and body temperatures of the animal models were measured with an animal monitoring system (SA Instruments, USA).
# The whole body of the animal model was photographed through dual energy X-ray absorptiometry (DEXA) using iNSiGHT VET DXA (Osteosys, KR), and the total lean body mass and the body fat content (fat, %) were analyzed. In addition, from the photographed images, the two-dimensional images of the gastrocnemius muscle (GS) and the tibialis anterior (TA) were assigned to the region of interest (ROI) using a program, and the lean body mass of each of the gastrocnemius muscle (GS) and the tibialis anterior (TA) was measured and calculated. Since the DEXA image can be used to measure and analyze the lean body mass, fat, and bone density of a mouse, it is possible to measure and calculate not only detailed lean body mass but also total lean body mass and body fat content (fat, %).
# Grip strength was measured every 2 days from the first day (day 0) of oral administration. The measurement of the grip strength was performed using a grip strength meter for mice (BIOSEB), a mouse was placed on a wire mesh attached to a gauge capable of monitoring the strength, and the tail of the mouse was pulled downward to measure a force of grabbing the wire mesh. The average value was recorded by repeating measurement five consecutive times.
# Body weights were measured every day from the first day (day 0) of oral administration.
# [1] = tested on: model of sarcopenia caused by aging; assay: Aging animal model, 24-month-old mice, oxiracetam per concentration (Experimental Example 3); type: in vivo, C57BL/6J mice
# Text: For an experimental group in the present invention, oxiracetam having a structure of Formula 1 was purchased from Tokyo Chemical Industry (Japan; Product No. 00398, CAS RN:62613-82-5, purity: 96%) and used.
# As a model of sarcopenia caused by aging, 24-month-old male C57BL/6J mice were used. Until the day of the experiment, general feed (EEGJ30060: Cargill Agri Purina, Seongnam, Korea) and water were sufficiently supplied to the experimental animals, and the animals were acclimated for 1 week under an environment of a temperature of 23±2° C., a humidity of 55±10%, and a light-dark cycle of 12 hours-12 hours and used in the experiment.
# The animals were randomly divided into groups of 10 animals, such as a control (vehicle, n=10), and 42, 83, 167, 333 mg/kg/day oxiracetam-administered groups (n=10 per concentration). To the oxiracetam-administered group, oxiracetam was orally administered using a Zonde needle for 93 days once a day at a dose of 42, 83, 167, or 333 mg/kg/day. During the same period, no drug was administered to the control group, and 100 μL of normal saline was orally administered at one time.
# To measure grip strength, a grip strength test was performed. The maximum force presented when the forelimbs of an animal model of each group could no longer hold the rod by pulling the tail horizontally while holding the tail of the animal model and holding the rod of a device with both front paws was considered to be grip strength (N). The grip strength was measured once every 3 days, and after repeating five measurements at one time, the average value was shown. Grip strength adaptation training was performed at least three times before drug administration.
# The lean body mass for the gastrocnemius muscle (GS) and tibialis anterior (TA) for each group was measured every 7 days. Specifically, animal models of each group were anesthetized using 3% isoflurane, fixed to a photographing bed, and then photographed. The respiration rates and temperatures of the animal models during photographing were measured using an animal monitoring system (SA Instruments, USA).
# The whole body of the animal model was photographed through dual energy X-ray absorptiometry (DEXA) using iNSiGHT VET DXA (Osteosys, KR), and the lean body mass of each of the gastrocnemius muscle (GS) and the tibialis anterior (TA) was measured and calculated from the two-dimensional images of the gastrocnemius muscle (GS) and the tibialis anterior (TA) by a program using the region of interest (ROI).
# Statistical processing was performed using GraphPad Prism (GraphPad Software Inc., San Diego, CA, USA). The results of each repeated experiment were expressed as mean±standard error of mean, and analyzed using the analysis of variance (Tukey's test), and statistical significance was acknowledged when the P-value was 0.05 or less.
# [2] = day 35, compared to control (vehicle)
# [3] = Oxi 42, 83, 167 and 333 mg/kg/day, DEXA every 7 days, compared to control
# [4] = Oxi 333 group (333 mg/kg/day), among dose groups
structure (smiles),measurement,setting,value
"NC(=O)CN1CC(O)CC1=O (racemic) [oxiracetam, (RS)-2-(4-hydroxy-2-oxopyrrolidin-1-yl)acetamide]",change in body weight,DMD animal model,does not exhibit a significant effect
same,change in grip strength,DMD animal model,significantly increased
same,pseudohypertrophy (characteristic symptom of DMD),DMD animal model,reduced
same,lean body mass of the gastrocnemius muscle (GS),DMD animal model; compared to control,significantly increased
same,lean body mass of the tibialis anterior (TA),DMD animal model; compared to control,significantly increased
same,"body fat mass (fat, %)",DMD animal model; [2],significantly reduced
same,total lean body mass,DMD animal model; [2],significantly increased
same,dose dependence of the effect on grip strength,[1]; 42-333 mg/kg/day oral 93 days,increases in a concentration-dependent manner
same,change in grip strength (decrease in grip strength),"[1]; Oxi 42, 83, 167 and 333 mg/kg/day oral 93 days, versus control (vehicle)",significantly inhibited and rather increased
same,lean body mass of the gastrocnemius muscle (GS),[1]; [3],rather significantly increased
same,lean body mass of the tibialis anterior (TA),[1]; [3],rather significantly increased
same,lean body mass of the gastrocnemius muscle (GS),[1]; [4],greatest increase
same,lean body mass of the tibialis anterior (TA),[1]; [4],greatest increase
